In publication PMC5841303, “In silico screening for human norovirus antivirals reveals a novel non-nucleoside inhibitor of the viral polymerase” (Scientific Reports, 2018):

What was measured:
norovirus RdRp = assay: Counter-screen gel-shift RdRp assay (primed elongation of PE44-NoV template); format: biochemical, human norovirus; conditions: fixed concentration of 100 µM
Experimental: In this assay, a 32 nucleotide RNA template (PE44-NoV) is extended to 44 nucleotides in the presence of an active RdRp[16]. […] Inhibition of primed elongation of the PE44-NoV template was examined at a fixed concentration of 100 µM (Fig. 4D). In the absence of inhibition (0.5% DMSO vehicle only) the RNA template was extended to 44 nucleotides (Fig. 4D), evidenced by an upward gel shift and the appearance of the second, higher band.
Fluorescent RdRp activity assays were carried out as previously described[14],[62]. Briefly, RdRp activity was quantified by monitoring the formation of double-stranded RNA (dsRNA) from a single stranded homopolymeric template, poly(C) (Sigma Aldrich, St Louis, MO, USA), using the fluorescent dye PicoGreen (Life Technologies, Carlsbad, CA, USA). RdRp assays were performed in 384-well plates, and each reaction mixture contained 400 ng enzyme, 45 µM GTP, 10 ng/µL poly(C) RNA, 2.5 mM MnCl2, 5 mM dithiothreitol, (DTT), 0.01% bovine serum albumin (BSA), and 0.005% Tween 20 in 20 mM Tris-HCl, pH 7.5, with a final reaction volume of 25 µL. The previous published norovirus NNI NIC02 was used as a positive control. RdRps were incubated for 10 mins at 30 °C in the presence of the test compounds or the compound vehicle DMSO (0.5% vol/vol) before addition into the reaction mixture, which was then allowed to run 15 min at 30 °C then terminated with 10 mM EDTA, followed by PicoGreen staining and dsRNA quantitation. GraphPad Prism V6.05 (La Jolla, CA, USA) was used to plot the IC50 values. In cases where fluorescent enhancement was recorded for a compound instead of inhibition, a secondary gel-based polymerase activity assay was used as a counter-screen as described below, to exclude the possibility of RdRp activity enhancement (Supplementary Fig. S1). Primed elongation activity was examined in a gel-based assay as previously described[16],[63] using the RNA template (PE44-NoV, Fig. 4D). Gels were imaged using BioRad (Hercules, CA, U.SA) Geldoc Universal Hood II, running BioRad Image Lab software, V4.1, build 16. Antagonism was calculated using Compusyn software V1.0[59]. 54 and PPNDS (4:1 ratio) were tested alone and together against norovirus Sydney 2012 RdRp.

MNV RdRp = molecular target: T1, MNV RdRp (Norovirus, UniProt Q80J95); assay: Fluorescent RdRp activity assay, MNV RdRp; format: biochemical, murine norovirus; conditions: 0.1–100 µM; read-out: IC50 against MNV RdRp
T1 construct: made in house
Description: (§1) The antiviral activity of the four compounds (11, 13, 42a and 54) were examined for inhibition of RNA polymerases from other viruses spanning three genera of the Caliciviridae family, including Norovirus (human norovirus and MNV), Lagovirus (rabbit haemorrhagic disease virus [RHDV]) and Sapovirus (human sapovirus). […] The protein sequence of the examined calicivirus polymerases has an identity range between 30.2–61.4%, and therefore the broad-spectrum activity of these compounds could be attributed to a common, highly-conserved binding pocket across the RdRps, as has been previously reported with broad-spectrum activity of other site-B binding NNIs[16]. Moreover, the ability of each compound to inhibit the different RdRps in a similar range could be further confirmation of targeting a well-conserved binding site of the Caliciviridae family.
Recombinant calicivirus RdRps (GenBank accession numbers) norovirus GII.Pe/GII.4 Sydney 2012 (KT239579), MNV GV CW1 (DQ285629), RHDV Czech V351 (KF594473.1), and SaV GI.1 Mc114 (AY237422) were expressed and purified as described previously[60],[61]. […]
Fluorescent RdRp activity assays were carried out as previously described[14],[62]. Briefly, RdRp activity was quantified by monitoring the formation of double-stranded RNA (dsRNA) from a single stranded homopolymeric template, poly(C) (Sigma Aldrich, St Louis, MO, USA), using the fluorescent dye PicoGreen (Life Technologies, Carlsbad, CA, USA). […] RdRps were incubated for 10 mins at 30 °C in the presence of the test compounds or the compound vehicle DMSO (0.5% vol/vol) before addition into the reaction mixture, which was then allowed to run 15 min at 30 °C then terminated with 10 mM EDTA, followed by PicoGreen staining and dsRNA quantitation. […] In cases where fluorescent enhancement was recorded for a compound instead of inhibition, a secondary gel-based polymerase activity assay was used as a counter-screen as described below, to exclude the possibility of RdRp activity enhancement (Supplementary Fig. S1). […] Antagonism was calculated using Compusyn software V1.0[59]. […]

MNV = MNV plaque reduction assay in cell culture; format: cell-based, murine norovirus
Experimental: As mentioned above, the only robust cellular assay available for the evaluation of potential norovirus inhibitors is the closely related MNV assay. […] Consequently, 54 was further assessed to determine the IC50 value against MNV RdRp activity using an in vitro fluorescent assay. […] 54 was then assessed for cytotoxicity against RAW264.7 mouse macrophage cells using a cell viability assay. […] Using the plaque reduction assay, the inhibitory effects of 54 (0.5–50 µM) were examined against MNV plaque formation in cell culture. […] Compound solubility and its cell-membrane permeability properties could be further improved with structure-activity relationship enhancement of the 54 scaffold to facilitate cellular uptake, and therefore to increase antiviral efficacy. Work on this aspect is ongoing, and it will be reported in due course.
MNV-1 (CW1) culture assays were performed as previously described. Replication was examined using plaque assays[58],[64],[65]. Cytotoxicity was examined using a CellTitre Blue (Promega, Madison, WI, USA) viability assay as described previously.

R419A norovirus RdRp = molecular target: T2, R419A norovirus RdRp (Norovirus GII.4 (Norwalk virus, human norovirus), UniProt K4L8Z7, R1608A); assay: Fluorescent RdRp assay, R419A mutant RdRp; format: biochemical; conditions: 0.1–100 µM
T2 sequence (K4L8Z7 1190-1699 R1608A): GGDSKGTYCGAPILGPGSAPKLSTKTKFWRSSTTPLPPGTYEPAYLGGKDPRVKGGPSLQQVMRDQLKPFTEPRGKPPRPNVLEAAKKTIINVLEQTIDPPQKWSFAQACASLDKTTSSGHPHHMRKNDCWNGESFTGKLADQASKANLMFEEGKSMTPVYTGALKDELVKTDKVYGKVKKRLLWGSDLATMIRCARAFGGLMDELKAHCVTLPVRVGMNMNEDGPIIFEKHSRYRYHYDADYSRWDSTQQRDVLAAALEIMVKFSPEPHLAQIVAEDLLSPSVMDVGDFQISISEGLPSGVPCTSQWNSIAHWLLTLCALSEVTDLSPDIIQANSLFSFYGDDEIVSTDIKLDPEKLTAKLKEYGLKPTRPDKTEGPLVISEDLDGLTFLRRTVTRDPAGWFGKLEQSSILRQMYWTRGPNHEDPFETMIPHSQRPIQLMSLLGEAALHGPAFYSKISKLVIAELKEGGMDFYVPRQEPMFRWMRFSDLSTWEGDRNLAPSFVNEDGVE
Description: Given the evidence of 54 being a site-B binding NNI, residues Q414 and R419 were mutated to alanine. These residues were previously shown by our research group and others to be critical for human norovirus RdRp site-B binding NNIs, and can create resistance to the drug through their mutagenesis[16],[17],[39]. After the mutant RdRps’ transcriptional activity was confirmed in a fluorescent RdRp assay (Q414A: 54%, R419A: 34% of wild-type activity, respectively), dose-response curves for 54 (0.1–100 µM) were produced to compare the IC50 values between the wild-type RdRp and the two mutant RdRps, Q414A and R419A (Fig. 13B). […]
(§2) Fluorescent RdRp activity assays were carried out as previously described[14],[62]. Briefly, RdRp activity was quantified by monitoring the formation of double-stranded RNA (dsRNA) from a single stranded homopolymeric template, poly(C) (Sigma Aldrich, St Louis, MO, USA), using the fluorescent dye PicoGreen (Life Technologies, Carlsbad, CA, USA). […] RdRps were incubated for 10 mins at 30 °C in the presence of the test compounds or the compound vehicle DMSO (0.5% vol/vol) before addition into the reaction mixture, which was then allowed to run 15 min at 30 °C then terminated with 10 mM EDTA, followed by PicoGreen staining and dsRNA quantitation. […] Antagonism was calculated using Compusyn software V1.0[59]. […]

RHDV RdRp = assay: Fluorescent RdRp activity assay, RHDV RdRp; format: biochemical, rabbit haemorrhagic disease virus; conditions: fixed concentration of 100 µM
Description: as §1, with “Moreover, the ability of each compound to inhibit the different RdRps in a similar range could be further confirmation of targeting a well-conserved binding site of the Caliciviridae family.” left out
as §2

O=C1NN(c2ccccc2)C(=O)/C1=C/c1ccc(-c2ccc(S(=O)(=O)Nc3ccccc3)cc2)o1 [Compound 54]
inhibition of primed elongation activity (gel-shift) (norovirus RdRp): near complete abolishment of norovirus RdRp activity
IC50 (MNV RdRp): 12.1 µM
cytotoxicity seen in plaque assay (MNV; 50 µM, RAW264.7 cells): RAW264.7 cells thinning
EC50 (MNV; 0.5–50 µM, read-out: EC50 against MNV in cell culture (plaque reduction)): > 50 µM
effect on plaque numbers (MNV; up to 25 µM): no appreciable effect
IC50 (R419A norovirus RdRp): 10.2 µM
inhibition of RHDV RdRp activity (RHDV RdRp): 99.0%
